Measurements published in patent US20230240297A1, “SELECTIVE HERBICIDES BASED ON SUBSTITUTED ISOXAZOLIN CARBOXAMIDES AND CYPROSULFAMIDE” (Bayer Aktiengesellschaft, priority 2020, published 2023).

Tests used:
Format in all cases: in vivo, maize
ZEAMA Abraxas = experiment: Tank-mix; post-emergence, crop damage with and without safener; details: for HER effect + SAF / HER effect: Final assessment; for HER effect: no safener
Protocol: (§1) Seeds of crops (spring wheat, TRZAS; spring barley, HORVS; maize, ZEAMA) were placed in sandy loam soil in peat pots, covered with soil and cultivated in a greenhouse under good growth conditions. Two to three weeks after sowing, the test plants were treated at the 1 to 3-leaf stage. The herbicide/safener active compound combinations according to the invention, formulated as wettable powders or emulsion concentrates, and, in parallel tests, the correspondingly formulated individual active compounds were sprayed onto the green parts of the plants in various dosages using an amount of water of 300 1/ha (converted).
(§2) The pots were returned under good growing conditions in a glasshouse and a visual assessment of herbicidal effects was made at intervals from 1 to 3 weeks after herbicide application (DAT = days after treatment). Assessment was on a percentage basis in comparison with untreated control plants (0% = no injury, 100% = complete kill).

ZEAMA Sileno [1] = experiment: Treatment 1 day before (safener applied one day before herbicide, post-emergence); parameters: key to Reduction [Difference]: percentage points of visually scored % crop damage vs untreated control; details: for Reduction [%] / Reduction [Difference]: cyprosulfamide 100 g a.i./ha 1 day before; for HER effect + SAF: cyprosulfamide 100 g a.i./ha applied 1 day before; for HER effect + SAF / HER effect: Final assessment; for HER effect: no safener
From the text: Seeds of crops (spring wheat, TRZAS; spring barley, HORVS; maize, ZEAMA) were placed in sandy loam soil in pots of a diameter of 7-8 cm, covered with soil, and cultivated in a greenhouse under good growth conditions until plants were at the 1-3 leaf stage (BBCH 11-13). For split safener and herbicide treatment, first the safener was applied followed by the herbicide treatment on the following day. The safener and herbicides were formulated as WP and sprayed onto the green parts of the plants as an aqueous suspension at an equivalent water application rate of 300 1/ha, with addition of wetting agent and adjuvants (e.g. Mero, 1.5 1/ha; ammonium sulphate, 2 kg/ha). An equivalent set of plants was treated with the herbicides but without the prior safener treatment.
After application, the test plants were kept in the greenhouse under good growth conditions. 10 and 21 days after treatment (DAT) with the herbicide, % crop damage observed on the treated plants was scored visually in comparison to control plants that had not received any safener or herbicide treatment.

ZEAMA Sileno [2] = experiment: Seed treatment with safener; post-emergence herbicide application; parameters: Reduction [Difference]: scale not given here; details: Final assessment; for Reduction [%] / Reduction [Difference]: Cyprosulfamide 0.5 g a.i./kg seed; for Reduction [Difference]: damage without safener - damage with safener; for HER effect + SAF (crop damage with safener): Cyprosulfamide seed treatment 0.5 g a.i./kg seed; for HER effect (crop damage, herbicide without safener): no safener
Protocol: For the safener seed treatment, sufficient seeds of the respective crops (spring wheat, TRZAS; spring barley, HORVS; maize, ZEAMA) were weighed into screw top glass bottles approximately twice the volume of the seeds.
The specified safeners, formulated as wettable powder (WP) were weighed out so that the specified rates (g a.i./kg seed) would be obtained, dissolved in water (1 ml water per 10 g of seeds), and added to the seeds to produce a slurry.
The bottles were capped and then placed in an overhead shaker (set at medium speed for ca. 60 minutes) so that the seeds were evenly coated with the slurry. The bottles were uncapped and the seeds were either placed on paper and dried for an interval of 3-4 hours prior to sowing, or directly sown. Seeds were placed in sandy loam soil in pots of a diameter of 7-8 cm, covered with soil, and cultivated in a greenhouse under good growth conditions.
Post-emergence application of the specified herbicides was done when the plants had reached growth stage BBCH11-13, on two sets of plants:
a) seed treatment with safener, as described above b) no safener treatment
The herbicides were formulated as WP and sprayed onto the green parts of the plants as an aqueous suspension at an equivalent water application rate of 300 1/ha, with addition of wetting agent and adjuvants (e.g. Mero, 1.5 1/ha; ammonium sulphate, 2 kg/ha)
After application, the test plants were kept in the greenhouse under good growth conditions.
Values in the table below are mean values of at least 2 replicates.

ZEAMA Sileno [3] = experiment: Tank-mix; post-emergence, crop damage with and without safener; details: for HER effect + SAF / HER effect: Final assessment; for HER effect: no safener
Protocol: as §1, §2

[4] = HER 32 g a.i./ha, cyprosulfamide 100 g a.i./ha
[5] = HER dose 32 g a.i./ha + cyprosulfamide 100 g a.i./ha tank-mix
[6] = HER 2 g a.i./ha, cyprosulfamide 50 g a.i./ha
[7] = HER 2 g a.i./ha, cyprosulfamide 50 g a.i./ha, damage without safener - damage with safener
[8] = HER 8 g a.i./ha, cyprosulfamide 50 g a.i./ha
[9] = HER dose 2 g a.i./ha + cyprosulfamide 50 g a.i./ha tank-mix
[10] = HER dose 2 g a.i./ha, 0% = no injury, 100% = complete kill
[11] = HER dose 8 g a.i./ha + cyprosulfamide 50 g a.i./ha tank-mix

| Compound | Reduction [%] (ZEAMA Sileno [1]; HER 32 g a.i./ha) | Reduction [Difference] (ZEAMA Sileno [1]; HER 32 g a.i./ha) | HER effect + SAF (ZEAMA Sileno [1]; HER dose 32 g a.i./ha) [%] | HER effect (ZEAMA Sileno [1]; HER dose 32 g a.i./ha) [%] | Reduction [%] (ZEAMA Sileno [2]; HER dose 8 g a.i./ha) | Reduction [Difference] (ZEAMA Sileno [2]; HER dose 8 g a.i./ha) | HER effect + SAF (crop damage with safener) (ZEAMA Sileno [2]; HER dose 8 g a.i./ha) [%] | HER effect (crop damage, herbicide without safener) (ZEAMA Sileno [2]; HER dose 8 g a.i./ha) [%] | Reduction [%] (ZEAMA Sileno [2]; HER dose 32 g a.i./ha) | Reduction [Difference] (ZEAMA Sileno [2]; HER dose 32 g a.i./ha) | HER effect + SAF (crop damage with safener) (ZEAMA Sileno [2]; HER dose 32 g a.i./ha) [%] | HER effect (crop damage, herbicide without safener) (ZEAMA Sileno [2]; HER dose 32 g a.i./ha) [%] | Reduction [%] (ZEAMA Sileno [3]; [8]) | Reduction [Difference] (ZEAMA Sileno [3]; [8]) | HER effect + SAF (ZEAMA Sileno [3]; [11]) [%] | HER effect (ZEAMA Sileno [3]; HER dose 8 g a.i./ha) [%] | Reduction [%] (ZEAMA Sileno [1]; HER 8 g a.i./ha) | Reduction [Difference] (ZEAMA Sileno [1]; HER 8 g a.i./ha) | HER effect + SAF (ZEAMA Sileno [1]; HER dose 8 g a.i./ha) [%] | HER effect (ZEAMA Sileno [1]; HER dose 8 g a.i./ha) [%] | other results |
| --- | --- | --- | --- | --- | --- | --- | --- | --- | --- | --- | --- | --- | --- | --- | --- | --- | --- | --- | --- | --- | --- |
| COCCOC(=O)C1C=CC(NC(=O)C2(CCl)CC(c3cc(F)cc(F)c3)=NO2)C1 (stereo not drawn) [Example 1.1] | 79 | 55 | 15 | 70 | 100 | 30 | 0 | 30 | 100 | 70 | 0 | 70 | – | – | – | – | – | – | – | – | Reduction [%] (ZEAMA Abraxas; [4]): 84%; Reduction [Difference] (ZEAMA Abraxas; [4]): 80; HER effect + SAF (ZEAMA Abraxas; [5]): 15%; HER effect (ZEAMA Abraxas; HER dose 32 g a.i./ha): 95% |
| CCOC(=O)C1C=CC(NC(=O)C2(CF)CC(c3cc(F)cc(F)c3)=NO2)C1 (stereo not drawn) [Example 1.17] | 59 | 50 | 35 | 85 | 95 | 90 | 5 | 95 | 82 | 70 | 15 | 85 | 53 | 50 | 45 | 95 | 63 | 60 | 35 | 95 | Reduction [%] (ZEAMA Sileno [3]; [6]): 67%; Reduction [Difference] (ZEAMA Sileno [3]; [7]): 30; HER effect + SAF (ZEAMA Sileno [3]; [9]): 15%; HER effect (ZEAMA Sileno [3]; [10]): 45%; Reduction [%] (ZEAMA Sileno [1]; HER 2 g a.i./ha): 56%; Reduction [Difference] (ZEAMA Sileno [1]; HER 2 g a.i./ha): 25; HER effect + SAF (ZEAMA Sileno [1]; HER dose 2 g a.i./ha): 20%; HER effect (ZEAMA Sileno [1]; HER dose 2 g a.i./ha): 45%; Reduction [%] (ZEAMA Sileno [2]; HER dose 2 g a.i./ha): 100%; Reduction [Difference] (ZEAMA Sileno [2]; HER dose 2 g a.i./ha): 45; HER effect + SAF (crop damage with safener) (ZEAMA Sileno [2]; HER dose 2 g a.i./ha): 0%; HER effect (crop damage, herbicide without safener) (ZEAMA Sileno [2]; HER dose 2 g a.i./ha): 45% |
| CC1(C(=O)NC2C=CC(C(=O)OCCSCc3ccccc3)C2)CC(c2cc(F)cc(F)c2)=NO1 (stereo not drawn) [Example 1.27] | 67 | 40 | 20 | 60 | 83 | 25 | 5 | 30 | 75 | 45 | 15 | 60 | – | – | – | – | – | – | – | – | Reduction [%] (ZEAMA Sileno [3]; [4]): 67%; Reduction [Difference] (ZEAMA Sileno [3]; [4]): 40; HER effect + SAF (ZEAMA Sileno [3]; [5]): 20%; HER effect (ZEAMA Sileno [3]; HER dose 32 g a.i./ha): 60% |
| CN(C)C(=O)SCCOC(=O)C1C=CC(NC(=O)C2(C)CC(c3cc(F)cc(F)c3)=NO2)C1 (stereo not drawn) [Example 1.29] | 73 | 55 | 20 | 75 | 100 | 60 | 0 | 60 | 93 | 70 | 5 | 75 | 67 | 40 | 20 | 60 | 67 | 40 | 20 | 60 | Reduction [%] (ZEAMA Sileno [3]; [4]): 60%; Reduction [Difference] (ZEAMA Sileno [3]; [4]): 45; HER effect + SAF (ZEAMA Sileno [3]; [5]): 30%; HER effect (ZEAMA Sileno [3]; HER dose 32 g a.i./ha): 75% |
| CC1(C(=O)NC2C=CC(C(=O)O)C2)CC(c2cc(F)cc(F)c2)=NO1 (stereo not drawn) [Example 1.36] | 67 | 50 | 25 | 75 | 94 | 75 | 5 | 80 | 87 | 65 | 10 | 75 | 63 | 50 | 30 | 80 | 69 | 55 | 25 | 80 | Reduction [%] (ZEAMA Sileno [3]; [6]): 50%; Reduction [Difference] (ZEAMA Sileno [3]; [7]): 20; HER effect + SAF (ZEAMA Sileno [3]; [9]): 20%; HER effect (ZEAMA Sileno [3]; [10]): 40%; Reduction [%] (ZEAMA Sileno [1]; HER 2 g a.i./ha): 63%; Reduction [Difference] (ZEAMA Sileno [1]; HER 2 g a.i./ha): 25; HER effect + SAF (ZEAMA Sileno [1]; HER dose 2 g a.i./ha): 15%; HER effect (ZEAMA Sileno [1]; HER dose 2 g a.i./ha): 40%; Reduction [%] (ZEAMA Sileno [2]; HER dose 2 g a.i./ha): 88%; Reduction [Difference] (ZEAMA Sileno [2]; HER dose 2 g a.i./ha): 35; HER effect + SAF (crop damage with safener) (ZEAMA Sileno [2]; HER dose 2 g a.i./ha): 5%; HER effect (crop damage, herbicide without safener) (ZEAMA Sileno [2]; HER dose 2 g a.i./ha): 40% |
| C=CC1(C(=O)NC2C=C(C(=O)OCCOC)OC2)CC(c2cc(C)cc(F)c2)=NO1 (stereo not drawn) [Example 1.89] | – | – | – | – | – | – | – | – | 88 | 22 | 3 | 25 | – | – | – | – | – | – | – | – | Reduction [%] (ZEAMA Abraxas; [8]): 100%; Reduction [Difference] (ZEAMA Abraxas; [8]): 30; Reduction [%] (ZEAMA Abraxas; [4]): 67%; Reduction [Difference] (ZEAMA Abraxas; [4]): 30; HER effect + SAF (ZEAMA Abraxas; [11]): 0%; HER effect (ZEAMA Abraxas; HER dose 8 g a.i./ha): 30%; HER effect + SAF (ZEAMA Abraxas; [5]): 15%; HER effect (ZEAMA Abraxas; HER dose 32 g a.i./ha): 45% |
| C=CC1(C(=O)NC2C=C(C(=O)OC)OC2)CC(c2cc(C)cc(C)c2)=NO1 (stereo not drawn) [Example 1.90] | – | – | – | – | 73 | 61 | 22 | 83 | 68 | 64 | 30 | 94 | – | – | – | – | – | – | – | – | Reduction [%] (ZEAMA Abraxas; [6]): 88%; Reduction [Difference] (ZEAMA Abraxas; [6]): 22; HER effect + SAF (ZEAMA Abraxas; [9]): 3%; HER effect (ZEAMA Abraxas; HER dose 2 g a.i./ha): 25% |
